Source: patent US20010055569A1, “Nasal drug delivery composition” (West Pharmaceutical Services Drug Delivery & Clinical …, priority 1998, published 2001)
Values after ≈ are worked out from the molar mass of the structure shown. Like-named read-outs stand apart in the source and are kept apart here.

Assay: Solubility of drugs in vegetable oils (castor oil, soybean oil)
Conditions: for solubility: oil or lipid, thermodynamic from solid
Method: The solubility of flurbiprofen in different vegetable oils was measured by the addition of increasing quantities of the drug to an oil system and determination of the maximum amount that will dissolve by observation of the resultant solution and the onset of a cloudy nature or precipitation.

## CN1CCc2cccc3c2[C@H]1Cc1ccc(O)c(O)c1-3 [Apomorphine]
Room temperature, soybean oil
  Solubility in soybean oil: <10 mg/g

## COc1ccc2c(c1)c(CC(=O)O)c(C)n2C(=O)c1ccc(Cl)cc1 [Indomethacin]
  Solubility in castor oil: >15 < 20 mg/g
  Solubility in soybean oil: <5 mg/g

## CC(C(=O)O)c1ccc(-c2ccccc2)c(F)c1 (centres unmarked) [flurbiprofen]
Castor oil BP
  solubility: 150 mg/mL (≈ 614 mM)
Soybean oil BP
  solubility: < 50 mg/mL
